In patent US10213416B2, “Substituted benzoxazolone derivatives as acid ceramidase inhibitors, and their use as medicaments” (FONDAZIONE ISTITUTO ITALIANO DI TECNOLOGIA, priority 2014, dated 2019):
“Also recorded” adds a separate entry of the source.

Columns and labels:
[1] = molecular target: human (hAC) acid ceramidase (Homo sapiens (Human), UniProt Q13510); experiment: Fluorescent-based in vitro assay of acid ceramidase inhibition; assay type: biochemical; settings: human acid ceramidase-enriched lysosomal lysate from HEK293 cells, fluorogenic probe 5 μM, pH 4.5
Source text: To evaluate the potency of the compounds towards acid ceramidase, a fluorescence-based in vitro assay previously described in literature (Bedia C et al., ChemBioChem, 2007, 8, 642-648) was implemented and optimized. This assay is based on a “fluorogenic probe” containing a coumarin group and a sphingoid base moiety (see figure below), which is not fluorescent in itself, but upon enzymatic cleavage by acid ceramidase followed by a chemical transformation liberates the fluorescent molecule umbelliferone (7-hydroxychromen-2-one). By quantifying the generation of umbelliferone using a fluorescence plate-reader, the level of enzymatic activity can be measured, whereby IC50 values of compounds that inhibit this activity can be generated.
Lysosomal lysate, enriched with acid ceramidase, was prepared from a cell line stably expressing human acid ceramidase. In the assay, the fluorogenic probe (or substrate) serves as a ceramide-analogue, which is recognized and hydrolyzed at the amide bond by acid ceramidase from the enriched lysate to yield the fatty acid and coumarinic aminodiol.
A lysosomal human acid ceramidase protein preparation was obtained from HEK293 cells stably expressing acid ceramidase suspended in 20 mM Tris HCl (pH 7.5) with 0.32 M sucrose. The cell solution was sonicated and centrifuged at 800×g for 15 min at 4° C. Supernatants were then centrifuged at 12,000×g for 30 min at 4° C. Pellets were re-suspended in phosphate-buffered saline (PBS) pH 7.4 and subjected to two freeze-thaw cycles at −80° C. The suspension was finally centrifuged at 105,000×g for 1 h at 4° C. and protein concentration was measured in the supernatant with bicinchinonic-acid based protein assay.
The assay was performed in Optiplate 96-wells black plates, with each reaction well containing a mixture of 25 mM sodium acetate buffer pH 4.5 and a fixed amount of protein (2 μg) in a volume of 85 μL. After 30 min of pre-incubation with test compounds (diluted 20× from DMSO stock solutions at different concentrations), the fluorogenic probe was added (diluted 20× from EtOH stock solution, final concentration 5 μM). After incubation for 3 h at 37° C., the reactions were stopped with 50 μl of methanol and 100 μl of a 2.5 mg/mL NaIO4 fresh solution in 100 mM Glycine/NaOH pH 10.6. The plate was incubated at 37° C. for 2 h in the dark and fluorescence intensities were measured at excitation/emission wavelengths of 360/446 nm. Negative control samples consisted of the same incubation mixture in the absence of protein extracts. The IC50 values or percent of inhibition, at the indicated concentration, of selected compounds described in the invention are reported in Table 2.

[2] = system: MAG-hydrolysing enzymes (monoacylglycerol lipase (MGL), hormone-sensitive lipase (HSL), endothelial lipase); experiment: MAG-hydrolysing activity ex vivo in mouse tissues after systemic administration (LC-MS based assay); settings: mice, 10 mg-kg-1 intraperitoneal, measured 3 h after injection; brain, liver, fat and heart
Procedure: (§1) Specifically, the compound of Example 1 was tested for its ability to inhibit the hydrolytic degradation of diacylglycerols (DAG) and monoacylglycerols (MAG) in live mice. DAG and MAG hydrolysis is catalyzed by multiple serine lipases, including diacylglycerol lipase (DGL), monoacylglycerol lipase (MGL), hormone-sensitive lipase (HSL), and endothelial lipase. Thus, by monitoring the effects of compound of Example 1 on MAG-hydrolysing activity as well as DAG and MAG levels ex vivo, we gain important information as to the ability of the compound to interfere with those lipases in a physiologically relevant setting.
Specifically, FIG. 1 evidences the effect of Example 1 or vehicle (DMSO) on MGL activity in brain, liver, fat and heart. MAG-hydrolysing activity was measured 3 h after intraperitoneal injection of compound of Example 1 (10 mg-kg-1). Results are expressed as mean±s.e.m. (n=5). […] The levels of MAGs were quantified after 3 hours after intraperitoneal injection of compound of Example 1 (10 mg-kg-1). Specifically, levels of 16:0 MAG, 18:0 MAG, 18:1 MAG, 22:4 MAG, 22:6 MAG were measured in the brain (a); levels of 16:0 MAG, 18:0 MAG, 18:1 MAG, 22:4 MAG were measured in the liver (b), in fat (c) and in the heart (d). Results are expressed as mean±s.e.m. (n=5).
Tissue was homogenized in ice-cold Tris-HCl (50 mM, pH7.5, 10 vol) containing sucrose (0.32 M). […]

[3] = system: levels of MAGs in brain, liver, fat and heart; experiment: Levels of monoacylglycerols (MAG) in mouse tissues after systemic administration; assay type: in vivo; settings: mice, 10 mg-kg-1 intraperitoneal, 3 hours after injection
Procedure: as §1
Specifically, FIG. 1 evidences the effect of Example 1 or vehicle (DMSO) on MGL activity in brain, liver, fat and heart. MAG-hydrolysing activity was measured 3 h after intraperitoneal injection of compound of Example 1 (10 mg-kg-1). Results are expressed as mean±s.e.m. (n=5). […] The levels of MAGs were quantified after 3 hours after intraperitoneal injection of compound of Example 1 (10 mg-kg-1). Specifically, levels of 16:0 MAG, 18:0 MAG, 18:1 MAG, 22:4 MAG, 22:6 MAG were measured in the brain (a); levels of 16:0 MAG, 18:0 MAG, 18:1 MAG, 22:4 MAG were measured in the liver (b), in fat (c) and in the heart (d). Results are expressed as mean±s.e.m. (n=5). […]

Sequence of human (hAC) acid ceramidase (Q13510 143-395): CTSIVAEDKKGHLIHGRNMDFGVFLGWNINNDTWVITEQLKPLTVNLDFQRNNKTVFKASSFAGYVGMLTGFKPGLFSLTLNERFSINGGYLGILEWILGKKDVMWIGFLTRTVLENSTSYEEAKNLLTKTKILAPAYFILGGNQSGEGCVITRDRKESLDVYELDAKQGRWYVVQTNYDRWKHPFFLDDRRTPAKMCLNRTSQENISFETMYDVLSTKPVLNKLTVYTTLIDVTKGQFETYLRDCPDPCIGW
Sequence of human (hAC) acid ceramidase (Q13510 22-142): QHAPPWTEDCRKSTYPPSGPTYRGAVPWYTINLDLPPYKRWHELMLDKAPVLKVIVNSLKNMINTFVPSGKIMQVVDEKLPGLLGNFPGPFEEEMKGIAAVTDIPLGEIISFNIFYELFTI

| SMILES | IC50 [1] | MAG-hydrolysing activity (MGL activity) [2] | levels of the most representative MAGs (16:0, 18:0, 18:1, 22:4, 22:6 MAG) [3] |
| --- | --- | --- | --- |
| O=C(NCCCCCc1ccccc1)n1c(=O)oc2cc(-c3ccc(F)cc3)ccc21 [Example 1, 6-(4-fluorophenyl)-2-oxo-N-(5-phenylpentyl)-1,3-benzoxazole-3-carboxamide] | 75 ± 20 nM | lack of effect; also recorded: did not cause inhibition; also recorded: no inhibitory activity | lack of effect; also recorded: remained unchanged |
| O=C(NCCCCCCc1ccccc1)n1c(=O)oc2ccc(-c3ccc(C(F)(F)F)cc3)cc21 [Example 3, 2-oxo-N-(6-phenylhexyl)-5-[4-(trifluoromethyl)phenyl]-1,3-benzoxazole-3-carboxamide] | 111 ± 30 nM |  |  |
| O=C(NCCCCCCc1ccccc1)n1c(=O)oc2c(-c3ccc(F)cc3)cccc21 [Example 4, 7-(4-fluorophenyl)-2-oxo-N-(6-phenylhexyl)-1,3-benzoxazole-3-carboxamide] | 125 ± 79 nM |  |  |
| CCCCOCCCNC(=O)n1c(=O)oc2cc(-c3ccc(F)cc3)ccc21 [Example 13, N-(3-butoxypropyl)-6-(4-fluorophenyl)-2-oxo-1,3-benzoxazole-3-carboxamide] | 132 ± 5 nM |  |  |

The next lines start with results.

| IC50 [1] | SMILES | MAG-hydrolysing activity (MGL activity) [2] | levels of the most representative MAGs (16:0, 18:0, 18:1, 22:4, 22:6 MAG) [3] |
| --- | --- | --- | --- |
| 26 ± 3 nM | COc1ccc(C(=O)c2ccc3c(c2)oc(=O)n3C(=O)NCCCCCc2ccccc2)cc1 [Example 6, 6-(4-methoxybenzoyl)-2-oxo-N-(5-phenylpentyl)-1,3-benzoxazole-3-carboxamide] |  |  |
| 46 ± 31 nM | COc1ccc(C(=O)c2ccc3oc(=O)n(C(=O)NCCCCCCc4ccccc4)c3c2)cc1 [Example 8, 5-(4-methoxybenzoyl)-2-oxo-N-(6-phenylhexyl)-1,3-benzoxazole-3-carboxamide] |  |  |
| 66 ± 15 nM | O=C(c1ccc(F)cc1)c1cccc2c1oc(=O)n2C(=O)NCCCCCc1ccccc1 [Example 9, 7-(4-fluorobenzoyl)-2-oxo-N-(5-phenylpentyl)-1,3-benzoxazole-3-carboxamide] |  |  |
| 37 nM | O=C(NCCCCCc1ccccc1)n1c(=O)oc2c(-c3ccc(F)cc3)cc(Cl)cc21 [Example 14, 5-chloro-7-(4-fluorophenyl)-2-oxo-N-(5-phenylpentyl)-1,3-benzoxazole-3-carboxamide] |  |  |
| 240 ± 58 nM | O=C(NCCCCSc1ccccc1)n1c(=O)oc2ccc(-c3ccc(F)cc3)cc21 [Example 15, 5-(4-fluorophenyl)-2-oxo-N-(4-phenylsulfanylbutyl)-1,3-benzoxazole-3-carboxamide] |  |  |
